Measurements taken from ChEMBL document CHEMBL2062430, “Set-up of a new series of HDAC inhibitors: the 5,11-dihydrodibenzo[b,e]azepin-6-ones as privileged structures” (Bioorg Med Chem Lett, 2012).

What was measured:
Histone deacetylase = assay: Inhibition of HDAC in human HeLa cell extracts using Fluor de Lys as substrate by fluorescence assay; assay type: protein assay
[1] = target: T1, Histone deacetylase (Homo sapiens) (UniProt Q13547+O15379+Q9UBN7+Q92769+Q9UQL6+Q8WUI4+Q9BY41+Q96DB2+P56524+Q9UKV0+Q969S8); details: HeLa, at 1 µM
Description: Inhibition of HDAC in human HeLa cell extracts using Fluor de Lys as substrate at 1 uM by fluorescence assay

[2] = target: T1, Histone deacetylase (Homo sapiens); details: HeLa, at 0.1 µM
Description: Inhibition of HDAC in human HeLa cell extracts using Fluor de Lys as substrate at 0.1 uM by fluorescence assay

[3] = target: T1, Histone deacetylase (Homo sapiens); details: HeLa, at 0.01 µM
Description: Inhibition of HDAC in human HeLa cell extracts using Fluor de Lys as substrate at 0.01 uM by fluorescence assay

HCT-116 = assay: Antiproliferative activity against human HCT116 cells after 5 days by Alamar Blue assay; assay type: functional, cell-based; details: HCT-116, 120 h

O=C(CCCCCN1C(=O)c2ccccc2C(F)c2ccccc21)NO (centres undefined)
IC50 (Histone deacetylase): 53 nM | inhibition [1]: 84% | inhibition [2]: 62% | inhibition [3]: < 20% | IC50 (HCT-116): 1600 nM

COC1(OC)c2ccccc2C(=O)N(CCCCCC(=O)NO)c2ccccc21
inhibition [1]: 42% | inhibition [2]: < 20% | inhibition [3]: < 20%

O=C(CCCN1C(=O)c2ccccc2Cc2ccccc21)NO
inhibition [1]: < 20% | inhibition [2]: < 20% | inhibition [3]: < 20%

O=C(CCCCCN1C(=O)c2ccccc2Cc2ccccc21)NO
IC50 (Histone deacetylase): 42 nM | inhibition [1]: 84% | inhibition [2]: 67% | inhibition [3]: 21% | IC50 (HCT-116): 710 nM

O=C(CCCCCN1C(=O)c2ccccc2C(O)c2ccccc21)NO (centres undefined)
IC50 (Histone deacetylase): 60 nM | inhibition [1]: 81% | inhibition [2]: 58% | inhibition [3]: 21% | IC50 (HCT-116): 2000 nM

O=C(CCCCN1C(=O)c2ccccc2Cc2ccccc21)NO
inhibition [1]: 29% | inhibition [2]: < 20% | inhibition [3]: < 20%

O=C(CCCCCN1C(=O)c2ccccc2C(F)(F)c2ccccc21)NO
IC50 (Histone deacetylase): 111 nM | inhibition [1]: 78% | inhibition [2]: 50% | inhibition [3]: < 20% | IC50 (HCT-116): 600 nM

O=C(CCCCCn1c(=O)c2ccccc2c(=O)c2ccccc21)NO
IC50 (Histone deacetylase): 153 nM | inhibition [1]: 77% | inhibition [2]: 47% | inhibition [3]: 11% | IC50 (HCT-116): > 1000 nM
